On assay [1], the source says: Patients’ data were obtained from the inpatients’ medical database.
Assay [2] deals with Gram-positive bacteria. In words: Clinical and microbiological efficacy evaluation of TEI treatment. The assay is classed as in vivo, human. Conditions: for Eradication rate of Gram-positive bacteria: eradication or presumed eradication. Here is the method:
According to the guiding principles of Clinical Trial Technology of antibacterial agents (2014 edition) ([Writing Group of Guidance for Clinical Trials of Antibacterial Drugs, 2014]), the judgment on efficacy evaluation includes clinical efficacy and microbiological efficacy. Clinical efficacy was evaluated after 7–14 days of medication. Clinical efficacy was evaluated in terms of clinical cure and clinical failure. Clinical cure is defined as the complete resolution or significant improvement of pretreatment infection signs and symptoms such that no additional antimicrobial therapy is needed. Clinical failure is defined as no apparent response or an incomplete response that needs additional antibiotic therapy for infections. The microbiological efficacy was evaluated as eradication, presumed eradication, no eradication, and presumed no eradication. Microbiological success was defined as eradication or presumed eradication of Gram-positive bacteria ([Writing Group of Guidance for Clinical Trials of Anti-bacterial Drugs, 2014]). The primary outcomes were clinical cure and microbiological success rates at the end of treatment (EOT).
Univariate and multivariate logistic regression analyses were used to select the covariables of the regression model. We established the regression model for predicting the factors influencing the eradication of Gram-positive bacteria. In univariate analysis, the χ^2 test or the Fisher exact test was used to compare the categorical variables. Continuous variables were compared by using the Mann–Whitney U test. Covariates with p values <0.1 were included in the multivariate logistic regression analysis (backward procedure, based on the p-value of the predictor removed) ([Hammitt et al., 2019]). Multivariate logistic regression analysis was used to screen for independent risk factors. SPSS software automatically screened out the independent variables when the optimal balance was reached between the fitting degrees of the prediction model.
Independent risk factor variables were used to establish regression equations and calculate prediction probabilities. The receiver operating characteristic (ROC) curves of multivariate factors were drawn; the area under the curve (AUC), cutoff point, Youden index, sensitivity, and specificity were used to evaluate their predictive value for predicting the factors influencing the eradication of Gram-positive bacteria.

Read-outs that look alike come from different tables or passages of the source.

As for Teicoplanin, the “28-day hospital mortality rate” value in assay [1] (CRRT group) amounted to 22.5%; in assay [1] (non-CRRT group), 15.2%. In assay [2] (CRRT group), the “Cases of presumed eradication of Gram-positive bacteria” value is reported as 4 cases. The values for the Clinical cure rate in assay [2] (CRRT group (n = 40)) and in assay [2] (non-CRRT group (n = 66)) were 67.5% and 72.7%, respectively. The “Eradication rate of Gram-positive bacteria” value in assay [2] (CRRT group) amounted to 77.5%; in assay [2] (non-CRRT group), 81.8%.

The values above are taken from paper PMC8957950 (Frontiers in Pharmacology, 2022).
